Experiment [1] deals with T1, full-length recombinant human BRD4 (Homo sapiens, UniProt O60885).
T1 construct: His-tag (N); purchased Reaction Biology RD-21-153; host or cells: Sf9 insect cells
Briefly: AlphaScreen assay, full-length BRD4 with acetylated histone H4 peptide. The class given is binding. To be noted: full-length BRD4, acetylated H4 peptide (1-21) ligand. Here is the method: AlphaScreen® assay, an […], was conducted by following manufacturer's protocol (PerkinElmer, Waltham, MA) at Reaction Biology (Malvern, PA) utilizing full-length recombinant human BRD4 corresponding to amino acid position 2-1362 (NCBI Reference Sequence: NM_058243) expressed in Sf9 insect cells with an N-terminal His-tag (Reaction Biology Catalog No. RD-21-153), and histone H4 peptide (1-21) containing acetylated lysine residues at positions 5, 8, 12 and 16 as the ligand. […] H4 ligand peptide was then added and the mixture was incubated for another 30 minutes at room temperature. Streptavidin-coated donor beads and Ni acceptor beads were then added, and the mixture was incubated for additional 60 minutes. Fluorescent measurements (Ex/Em=680/520-620 nm) were taken and the data were fitted to the Hill equation with variable slopes to obtain IC50 values.
In general terms: Alpha assays give light when donor and acceptor beads are brought close together.

The target in a further experiment is BRD3 (BD1, 2) (Homo sapiens, UniProt Q15059). Description: BROMOscan competitive ligand binding assay, BRD3 (BD1, 2).
The next experiment has as its target BRD4 (BD1, 2) (Homo sapiens, UniProt O60885). Description: BROMOscan competitive ligand binding assay, BRD4 (BD1, 2).
The target in a further experiment is T2, P300 (Homo sapiens, UniProt Q09472).
T2 sequence (Q09472 1049-1156 limits assumed): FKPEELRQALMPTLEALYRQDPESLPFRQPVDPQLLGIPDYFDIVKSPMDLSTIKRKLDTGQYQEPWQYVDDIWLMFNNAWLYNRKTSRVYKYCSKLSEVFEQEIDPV
Description: BROMOscan competitive ligand binding assay, P300.

Another experiment addresses BRDT (BD1, 2) (Homo sapiens, UniProt Q58F21). Description: BROMOscan competitive ligand binding assay, BRDT (BD1, 2).
A further experiment concerns the target BRD4 (BD2) (Homo sapiens, UniProt O60885). Briefly: BROMOscan competitive ligand binding assay, BRD4 (BD2).
The target in the next experiment is BRDT (BD1) (Homo sapiens, UniProt Q58F21). Description: BROMOscan competitive ligand binding assay, BRDT (BD1).
In a further experiment the target is BRD3 (BD1) (Homo sapiens, UniProt Q15059). Briefly: BROMOscan competitive ligand binding assay, BRD3 (BD1).
The next experiment concerns the target BRDT (BD2) (Homo sapiens, UniProt Q58F21). Briefly: BROMOscan competitive ligand binding assay, BRDT (BD2).
The next experiment addresses BRD2 (BD1, 2) (Homo sapiens, UniProt P25440). Briefly: BROMOscan competitive ligand binding assay, BRD2 (BD1, 2).
For a further experiment, the system named is MV4-11 cells. Briefly: MV4-11 cytotoxicity assay (CellTiter-Glo). The experiment is classed as cell-based. The note with it: Homo sapiens, 72 hr incubation. Here is the method: Cell lines: The MV4-11 cell line were obtained from American Type Culture Collection (ATCC, Manassas, VA, USA) and cultured in RPMI 1640 (Invitrogen 11879020) culture medium supplemented with 10% fetal bovine serum and 100 units/mL Penicillin, 100 μg/mL Streptomycin and maintained in a 37° C., 5% CO2/95% humidified air incubator.
Cytotoxicity Assay: MV4-11 cells were cultured as described above, and plated in 1536-well white solid tissue culture plates using a Multidrop Combi peristaltic dispenser (ThermoFisher, Waltham, MA) at a density of 500 cells/well in 5 μL of RPMI 1640 (Invitrogen 11879020) culture medium supplemented with 10% fetal bovine serum and 100 units/mL Penicillin, 100 μg/mL Streptomycin. A 1536-well pintool dispenser outfitted with 20 nL pins (Wako Automation, San Diego, CA) was used to transfer 23 nL of compound in DMSO to the 1536-well assay plates. After 72 hr incubation at 37° C., 2.5 μL of CellTiter-Glo (Promega) was dispensed into each well using a BioRAPTR FRD dispenser (Beckman Coulter, Brea, CA). Plates were incubated at room temperature for 10 minutes, transferred to a ViewLux microplate imager (Perkin Elmer, Waltham, MA) and the ATP-coupled luminescence was measured using a 1 second exposure.
Background: ATP-based viability assays read luminescence as a measure of living cells.

The next experiment has as its target BRD4 (BD1) (Homo sapiens, UniProt O60885). Briefly: BROMOscan competitive ligand binding assay, BRD4 (BD1).
Experiment [2] concerns acute myeloid leukemia cell line Kasumi-1. Briefly: Kasumi-1 cell viability assay (CellTiter-Blue). The note with it: Homo sapiens, read-out: Kasumi-1 IC50. The experiment is classed as cell-based. Here is the method:
Cell viability assay: Cell viability assay was conducted to obtain G150, the compound concentration resulting in 50% growth inhibition, using an acute myeloid leukemia cell line Kasumi-1 (ATCC® CRL-2724™) (ATCC, Manassas, VA). Briefly, cells were seeded on a 96-well flat-bottom cell culture plate at the density of 30,000 cells per well (MV-4-11) or 10,000 cells per well (Kasumi-1) in RPMI supplemented with 10% fetal bovine serum and L-glutamine plus penicillin and streptomycin. Cells were maintained at 37° C. with 5% CO2 for 24 hours then exposed to a given compound at either 11 or 21 concentrations ranging from 0 μM to 20 μM in a 150 μL volume in the presence of 0.2% dimethyl sulfoxide, the solvent used in serial dilution of the compound. The exposure was maintained for approximately 72 hours and the cell viability was measured using CellTiter-Blue® (Promega, Madison, WI) according to manufacturer's instruction. GI50 values were calculated using a four-parameter dose-response model in Graph Pad Prism (La Jolla, CA).
On the technique in general: Resazurin is reduced to fluorescent resorufin, in cell work by metabolically active cells.

For another experiment, the target named is BRD2 (BD2) (Homo sapiens, UniProt P25440). Briefly: BROMOscan competitive ligand binding assay, BRD2 (BD2).
A further experiment deals with CBP (Homo sapiens, UniProt Q92793). Briefly: BROMOscan competitive ligand binding assay, CBP.
A further experiment addresses BRD2 (BD1) (Homo sapiens, UniProt P25440). Briefly: BROMOscan competitive ligand binding assay, BRD2 (BD1).
A further experiment addresses BRD3 (BD2) (Homo sapiens, UniProt Q15059). Briefly: BROMOscan competitive ligand binding assay, BRD3 (BD2).
Setting [3] is: Kasumi 1, approximately 72 hours exposure, CellTiter-Blue.

Where two headings read alike, the source gives them in different places.

CBP, sequence (Q92793 1085-1192 limits assumed): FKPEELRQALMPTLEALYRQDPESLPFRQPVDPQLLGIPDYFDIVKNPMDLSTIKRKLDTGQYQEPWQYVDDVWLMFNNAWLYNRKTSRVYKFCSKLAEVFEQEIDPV
BRD2 (BD2), sequence (P25440 344-453 limits assumed): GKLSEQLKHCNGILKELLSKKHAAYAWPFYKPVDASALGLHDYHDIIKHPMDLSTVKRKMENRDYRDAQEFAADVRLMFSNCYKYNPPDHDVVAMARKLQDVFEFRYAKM
BRD3 (BD1), sequence (Q15059 34-140 limits assumed): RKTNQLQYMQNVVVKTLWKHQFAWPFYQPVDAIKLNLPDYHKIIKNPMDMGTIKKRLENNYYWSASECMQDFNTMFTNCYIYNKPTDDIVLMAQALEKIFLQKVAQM
BRD3 (BD2), sequence (Q15059 306-415 limits assumed): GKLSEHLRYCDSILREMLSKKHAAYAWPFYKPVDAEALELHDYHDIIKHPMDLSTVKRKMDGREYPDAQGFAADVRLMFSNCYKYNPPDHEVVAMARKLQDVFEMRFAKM
BRD2 (BD1, 2), sequence (P25440 71-455 limits assumed): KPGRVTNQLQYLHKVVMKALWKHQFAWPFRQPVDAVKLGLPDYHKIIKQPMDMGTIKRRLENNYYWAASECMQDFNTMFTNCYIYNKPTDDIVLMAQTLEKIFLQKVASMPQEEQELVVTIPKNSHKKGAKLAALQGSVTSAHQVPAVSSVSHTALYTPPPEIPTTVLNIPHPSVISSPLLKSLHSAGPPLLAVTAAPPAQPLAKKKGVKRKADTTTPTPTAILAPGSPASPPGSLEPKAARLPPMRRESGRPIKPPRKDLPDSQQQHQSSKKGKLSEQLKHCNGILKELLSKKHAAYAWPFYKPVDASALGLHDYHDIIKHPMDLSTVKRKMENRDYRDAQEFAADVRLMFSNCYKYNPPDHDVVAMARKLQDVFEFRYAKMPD
BRD3 (BD1, 2), sequence (Q15059 24-416 limits assumed): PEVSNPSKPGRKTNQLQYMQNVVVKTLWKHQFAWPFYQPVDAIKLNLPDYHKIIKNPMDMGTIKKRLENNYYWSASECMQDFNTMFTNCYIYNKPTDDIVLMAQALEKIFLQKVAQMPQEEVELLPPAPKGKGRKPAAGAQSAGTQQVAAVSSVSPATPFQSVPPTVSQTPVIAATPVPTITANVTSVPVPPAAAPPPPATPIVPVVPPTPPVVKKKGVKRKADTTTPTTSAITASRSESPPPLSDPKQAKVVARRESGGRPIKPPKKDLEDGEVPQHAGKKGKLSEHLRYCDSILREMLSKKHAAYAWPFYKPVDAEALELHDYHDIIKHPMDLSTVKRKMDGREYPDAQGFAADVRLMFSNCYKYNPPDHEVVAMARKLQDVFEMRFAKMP
BRD2 (BD1), sequence (P25440 74-180 limits assumed): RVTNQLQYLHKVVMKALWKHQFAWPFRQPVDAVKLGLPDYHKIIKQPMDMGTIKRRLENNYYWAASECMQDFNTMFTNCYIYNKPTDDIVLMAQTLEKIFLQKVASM

As usually defined, the IC50 is the concentration at which inhibition is half-maximal. By Kd is commonly meant the constant that tells how readily two partners part at equilibrium. Read a low Kd as a tighter complex. On to `Cc1cc(-c2ccc3nc(-c4cnn(CC(C)(C)O)c4)nc(N4CCOC[C@@H]4c4ccccc4)c3c2)cn(C)c1=O` [Cpd. 1, (S)-5-(2-(1-(2-hydroxy-2-methylpropyl)-1H-pyrazol-4-yl)-4-(3-phenylmorpholino)quinazolin-6-yl)-1,3-dimethylpyridin-2(1H)-one], for which the IC50 was less than 100 nM in experiment [1]; 100 to 500 nM with MV4-11 cells; less than 100 nM in experiment [2] (Kasumi 1, 72 h). Besides, the Kd at BRD3 (BD1, 2) is less than 100 nM; on BRD4 (BD1, 2) (Table 3) it was less than 100 nM; at BRD4 (BD1, 2) (tandem bromodomains), less than 100 nM; at P300, less than 100 nM; on BRDT (BD1, 2), less than 100 nM; at BRD4 (BD2) it was less than 100 nM. Further, the Kd was less than 100 nM at BRDT (BD1); less than 100 nM at BRD3 (BD1); less than 100 nM on BRDT (BD2); less than 100 nM on BRD2 (BD1, 2); less than 100 nM at BRD4 (BD1); less than 100 nM at BRD2 (BD2). Also, the Kd at CBP, on BRD2 (BD1) and on BRD3 (BD2) was less than 100 nM throughout.
As to `Cc1cc(-c2ccc3nc(-c4cnn(CC(C)(C)O)c4)nc(N4CCOC[C@@H]4C4CC4)c3c2)cn(C)c1=O` [Cpd. 3, (S)-5-(4-(3-cyclopropylmorpholino)-2-(1-(2-hydroxy-2-methylpropyl)-1H-pyrazol-4-yl)quinazolin-6-yl)-1,3-dimethylpyridin-2(1H)-one], the IC50 in [1] lay within 100 to 500 nM; in the experiment on MV4-11 cells, 500 to 5000 nM. The dissociation constant (Kd) at BRD4 (BD1, 2) (tandem bromodomains) is less than 100 nM; at P300 it was 100 to 500 nM; at CBP it was 100 to 500 nM.
Turning to `Cn1cc(-c2ccc3nc(-c4cnn(CC(C)(C)O)c4)nc(N4CCOC[C@@H]4C4CC4)c3c2)c2cc[nH]c2c1=O` [Cpd. 4, (S)-4-(4-(3-cyclopropylmorpholino)-2-(1-(2-hydroxy-2-methylpropyl)-1H-pyrazol-4-yl)quinazolin-6-yl)-6-methyl-1,6-dihydro-7H-pyrrolo[2,3-c]pyridin-7-one], the IC50 (in experiment [1]; with MV4-11 cells) was less than 100 nM each time. Further, the Kd is less than 100 nM on BRD4 (BD1, 2) (tandem bromodomains); less than 100 nM on P300; less than 100 nM on CBP.
Take `Cn1cc(-c2ccc3nc(-c4cnn(CC(C)(C)O)c4)nc(N4CCOC[C@@H]4c4ccc(F)cc4)c3c2)c2cc[nH]c2c1=O` [Cpd. 5, (S)-4-(4-(3-(4-fluorophenyl)morpholino)-2-(1-(2-hydroxy-2-methylpropyl)-1H-pyrazol-4-yl)quinazolin-6-yl)-6-methyl-1,6-dihydro-7H-pyrrolo[2,3-c]pyridin-7-one]: the IC50 in [1] was less than 100 nM; in the experiment with MV4-11 cells, 100 to 500 nM; in experiment [2] (setting [3]) it was less than 100 nM. The Kd is less than 100 nM at BRD4 (BD1, 2) (tandem bromodomains); less than 100 nM on P300; less than 100 nM on CBP.
On to `Cc1cc(-c2ccc3nc(-c4cnn(CC(C)(C)O)c4)nc(N4CCOC[C@@H]4c4ccc(F)cc4)c3c2)cn(C)c1=O` [Cpd. 6, (S)-5-(4-(3-(4-fluorophenyl)morpholino)-2-(1-(2-hydroxy-2-methylpropyl)-1H-pyrazol-4-yl)quinazolin-6-yl)-1,3-dimethylpyridin-2(1H)-one], for which the IC50 in experiment [1] was less than 100 nM; in the experiment on MV4-11 cells, 100 to 500 nM; in experiment [2] (setting [3]), less than 100 nM. In addition, the Kd on BRD4 (BD1, 2) (tandem bromodomains) was less than 100 nM; at P300, less than 100 nM; on CBP, less than 100 nM.
Regarding `Cc1cc(-c2ccc3nc(N4CCO[C@H](CO)C4)nc(N4CCOC[C@@H]4C4CCCCC4)c3c2)cn(C)c1=O` [Cpd. 10, 5-(4-((S)-3-cyclohexylmorpholino)-2-((S)-2-(hydroxymethyl)morpholino)quinazolin-6-yl)-1,3-dimethylpyridin-2(1H)-one], the Kd on P300 and on CBP was 100 to 500 nM in each case.
In the case of `Cc1cc(-c2ccc3nc(N4CCO[C@H](CO)C4)nc(N4CCOC[C@@H]4c4ccccc4)c3c2)cn(C)c1=O` [Cpd. 11, 5-(2-((S)-2-(hydroxymethyl)morpholino)-4-((S)-3-phenylmorpholino)quinazolin-6-yl)-1,3-dimethylpyridin-2(1H)-one], the Kd on P300 and on CBP was less than 100 nM throughout.
As to `Cc1cc(-c2ccc3nc(-c4cnn(CC(C)(C)O)c4)nc(N4CCOC[C@@H]4C4CCCCC4)c3c2)cn(C)c1=O` [Cpd. 12, (S)-5-(4-(3-cyclohexylmorpholino)-2-(1-(2-hydroxy-2-methylpropyl)-1H-pyrazol-4-yl)quinazolin-6-yl)-1,3-dimethylpyridin-2(1H)-one], the Kd at P300 and at CBP was 100 to 500 nM each time.
For the molecule `Cn1cc(-c2ccc3nc(N4CCO[C@H](CO)C4)nc(N4CCOC[C@@H]4C4CCCCC4)c3c2)c2cc[nH]c2c1=O` [Cpd. 13, 4-(4-((S)-3-cyclohexylmorpholino)-2-((S)-2-(hydroxymethyl)morpholino)quinazolin-6-yl)-6-methyl-1,6-dihydro-7H-pyrrolo[2,3-c]pyridin-7-one], the dissociation constant Kd on P300 and at CBP was less than 100 nM in each case.
Turning to `Cn1cc(-c2ccc3nc(-c4cnn(CC(C)(C)O)c4)nc(N4CCOC[C@@H]4C4CCCCC4)c3c2)c2cc[nH]c2c1=O` [Cpd. 14, (S)-4-(4-(3-cyclohexylmorpholino)-2-(1-(2-hydroxy-2-methylpropyl)-1H-pyrazol-4-yl)quinazolin-6-yl)-6-methyl-1,6-dihydro-7H-pyrrolo[2,3-c]pyridin-7-one], the equilibrium dissociation constant (Kd) on P300 is 100 to 500 nM; on CBP, less than 100 nM.
Take `Cn1cc(-c2ccc3nc(N4CCO[C@H](CO)C4)nc(N4CCOC[C@@H]4c4ccc(F)cc4)c3c2)c2cc[nH]c2c1=O` [Cpd. 15, 4-(4-((S)-3-(4-fluorophenyl)morpholino)-2-((S)-2-(hydroxymethyl)morpholino)quinazolin-6-yl)-6-methyl-1,6-dihydro-7H-pyrrolo[2,3-c]pyridin-7-one]: the Kd on P300 and at CBP was less than 100 nM throughout.

(Values after patent US12497395B2, “Small molecule bromodomain inhibitors and uses therof” (ConverGene, LLC, priority 2019, dated 2025).)
